PMC11289455 (Scientific Reports, 2024)
Read-outs that look alike come from different tables or passages of the source.

Key:
[1] = biological target: T1, α1A (alpha-1A adrenergic receptor) (Homo sapiens, UniProt P35348); assay: SafetyScreen44: α1A; type: binding
T1 construct: purchased Eurofins Cerep SafetyScreen44
T1 sequence (P35348 1-466): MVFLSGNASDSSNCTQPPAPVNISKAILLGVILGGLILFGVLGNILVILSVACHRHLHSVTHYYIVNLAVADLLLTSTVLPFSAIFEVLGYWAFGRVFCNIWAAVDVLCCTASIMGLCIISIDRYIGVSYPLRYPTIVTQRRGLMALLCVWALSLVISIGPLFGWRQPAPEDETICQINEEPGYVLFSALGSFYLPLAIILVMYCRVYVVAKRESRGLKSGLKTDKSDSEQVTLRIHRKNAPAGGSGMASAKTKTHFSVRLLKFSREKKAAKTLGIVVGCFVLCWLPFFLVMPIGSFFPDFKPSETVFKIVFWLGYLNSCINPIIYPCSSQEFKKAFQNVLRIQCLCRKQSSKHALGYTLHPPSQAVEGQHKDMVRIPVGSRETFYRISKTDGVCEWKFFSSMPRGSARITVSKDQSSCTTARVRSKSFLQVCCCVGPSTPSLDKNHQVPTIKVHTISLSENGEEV

[2] = biological target: T2, β1 (beta-1 adrenergic receptor) (Homo sapiens, UniProt P08588); assay: SafetyScreen44: β1; type: binding
T2 construct: purchased Eurofins Cerep SafetyScreen44
T2 sequence (P08588 whole entry): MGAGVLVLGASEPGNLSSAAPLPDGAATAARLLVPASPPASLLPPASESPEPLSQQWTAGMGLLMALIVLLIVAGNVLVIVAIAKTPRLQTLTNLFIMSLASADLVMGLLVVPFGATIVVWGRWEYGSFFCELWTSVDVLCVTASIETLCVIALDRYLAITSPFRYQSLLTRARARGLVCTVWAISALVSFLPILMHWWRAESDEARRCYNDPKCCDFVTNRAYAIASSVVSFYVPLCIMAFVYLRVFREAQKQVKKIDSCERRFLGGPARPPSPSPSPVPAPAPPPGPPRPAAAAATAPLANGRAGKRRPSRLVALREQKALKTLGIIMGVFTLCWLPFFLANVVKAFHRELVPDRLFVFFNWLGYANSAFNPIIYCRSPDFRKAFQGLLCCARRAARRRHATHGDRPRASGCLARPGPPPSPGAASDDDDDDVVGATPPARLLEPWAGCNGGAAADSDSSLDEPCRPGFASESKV

[3] = biological target: T3, μ (MOP) (mu opioid receptor) (Homo sapiens, UniProt P35372); assay: SafetyScreen44: μ (MOP); type: binding
T3 construct: purchased Eurofins Cerep SafetyScreen44
T3 sequence (P35372 whole entry): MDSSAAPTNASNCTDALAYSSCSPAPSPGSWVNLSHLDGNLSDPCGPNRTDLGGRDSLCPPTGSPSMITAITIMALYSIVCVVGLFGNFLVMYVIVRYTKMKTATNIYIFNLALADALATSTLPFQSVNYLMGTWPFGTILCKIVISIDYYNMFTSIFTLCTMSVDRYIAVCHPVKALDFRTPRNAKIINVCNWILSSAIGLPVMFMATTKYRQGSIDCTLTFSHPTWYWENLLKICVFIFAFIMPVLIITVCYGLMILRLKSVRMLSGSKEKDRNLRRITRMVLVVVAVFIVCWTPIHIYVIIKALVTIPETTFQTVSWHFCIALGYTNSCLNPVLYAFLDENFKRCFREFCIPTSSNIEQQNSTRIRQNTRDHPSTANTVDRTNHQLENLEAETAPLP

[4] = biological target: T4, V1a (vasopressin receptor 1A) (Homo sapiens, UniProt P37288); assay: SafetyScreen44: V1a; type: binding
T4 construct: purchased Eurofins Cerep SafetyScreen44
T4 sequence (P37288 whole entry): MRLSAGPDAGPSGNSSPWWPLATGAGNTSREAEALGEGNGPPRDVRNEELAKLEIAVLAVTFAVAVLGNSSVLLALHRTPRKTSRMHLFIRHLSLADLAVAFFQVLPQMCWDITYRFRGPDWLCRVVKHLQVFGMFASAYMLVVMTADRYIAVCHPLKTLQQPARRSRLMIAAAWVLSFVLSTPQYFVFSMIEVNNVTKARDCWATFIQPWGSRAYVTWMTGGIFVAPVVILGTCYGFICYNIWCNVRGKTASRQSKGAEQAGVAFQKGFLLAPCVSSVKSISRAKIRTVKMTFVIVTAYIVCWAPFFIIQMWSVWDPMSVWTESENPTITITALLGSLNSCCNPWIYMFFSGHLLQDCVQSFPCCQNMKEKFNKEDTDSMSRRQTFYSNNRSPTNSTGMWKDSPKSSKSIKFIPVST

Dopamine transporter = biological target: T5, Dopamine transporter (Homo sapiens, UniProt Q01959); assay: SafetyScreen44: dopamine transporter; type: binding
T5 construct: purchased Eurofins Cerep SafetyScreen44
T5 sequence (Q01959 whole entry): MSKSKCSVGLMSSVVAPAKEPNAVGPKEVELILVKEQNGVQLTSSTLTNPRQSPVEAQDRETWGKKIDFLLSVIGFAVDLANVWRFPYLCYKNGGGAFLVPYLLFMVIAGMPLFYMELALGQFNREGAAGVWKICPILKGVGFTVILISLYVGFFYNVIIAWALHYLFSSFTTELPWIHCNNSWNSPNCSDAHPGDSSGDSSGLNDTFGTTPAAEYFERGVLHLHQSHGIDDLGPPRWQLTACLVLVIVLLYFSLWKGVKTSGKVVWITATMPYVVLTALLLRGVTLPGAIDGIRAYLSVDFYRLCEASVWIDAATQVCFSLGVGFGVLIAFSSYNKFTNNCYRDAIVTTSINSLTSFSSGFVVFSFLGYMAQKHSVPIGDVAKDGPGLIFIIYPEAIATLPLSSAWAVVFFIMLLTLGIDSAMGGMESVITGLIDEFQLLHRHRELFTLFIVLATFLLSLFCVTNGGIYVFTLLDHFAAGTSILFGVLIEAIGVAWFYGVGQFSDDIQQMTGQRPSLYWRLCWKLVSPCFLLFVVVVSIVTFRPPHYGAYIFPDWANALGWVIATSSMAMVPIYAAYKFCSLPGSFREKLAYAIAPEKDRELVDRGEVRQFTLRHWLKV

5-HT transporter = biological target: T6, 5-HT transporter (Homo sapiens, UniProt P31645); assay: SafetyScreen44: 5-HT transporter; type: binding
T6 construct: purchased Eurofins Cerep SafetyScreen44
T6 sequence (P31645 whole entry): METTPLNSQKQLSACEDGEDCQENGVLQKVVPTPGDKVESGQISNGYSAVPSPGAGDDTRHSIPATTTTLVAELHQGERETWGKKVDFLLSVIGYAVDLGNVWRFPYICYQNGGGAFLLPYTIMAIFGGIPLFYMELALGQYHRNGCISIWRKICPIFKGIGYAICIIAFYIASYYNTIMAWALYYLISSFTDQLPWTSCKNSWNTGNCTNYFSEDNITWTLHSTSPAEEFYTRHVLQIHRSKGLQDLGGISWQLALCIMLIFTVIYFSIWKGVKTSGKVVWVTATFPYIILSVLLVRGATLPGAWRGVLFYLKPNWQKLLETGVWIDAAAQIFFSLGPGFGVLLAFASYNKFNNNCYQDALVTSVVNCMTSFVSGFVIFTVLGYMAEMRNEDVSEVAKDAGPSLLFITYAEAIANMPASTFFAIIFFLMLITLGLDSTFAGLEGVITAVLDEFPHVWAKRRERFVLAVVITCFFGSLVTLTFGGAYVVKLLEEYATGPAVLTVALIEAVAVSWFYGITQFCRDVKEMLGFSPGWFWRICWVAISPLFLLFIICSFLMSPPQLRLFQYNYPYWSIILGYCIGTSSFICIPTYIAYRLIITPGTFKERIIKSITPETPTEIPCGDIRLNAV

[5] = Exposure in colon tissue and colon contents in TNBS studies; type: in vivo, rat; conditions: TNBS rats, LC-MS/MS, LLOQ=2.6 nM
Experimental: Rats were deprived of food for 24 h prior to induction of colitis by intrarectal installation of TNBS 48 mg/kg (Sigma Aldrich; Raleigh, NC) in 50% ethanol on Day 0. All dose groups (n = approximately 10/group; up to 3 separate experiments) received TNBS, except negative controls, which received only water (n = 4). Rats were weighed daily. Euthanasia by overexposure to isoflurane occurred on Day 7. Following euthanasia, blood was collected retro-orbitally into serum separator microtainer tubes (Becton Dickinson; Franklin Lakes, NJ), centrifuged (2–3 min at 4 °C, 14,000 RPM), and stored at − 80 °C. Additionally, the whole colon was excised, measured, and photographed, and then cut open to allow for collection of the contents, which were weighed and flash frozen. After removal of the contents, colons were weighed and flash frozen. […] Colon weight/length ratio was calculated.
Table S3. […] All samples were analyzed using an LC-MS/MS method (LLOQ=2.6 nM).

[6] = Plasma levels in rat skin inflammation model; type: in vivo; conditions: all doses except 300 mg/kg BID, data not shown
Experimental: Other groups received anti–IL-23p19 antibody (Santa Cruz Biotechnology; Catalog #sc-271279LS) or isotype antibody via intraperitoneal injection on Days -1 and 3, as additional controls. On Day 0 through Day 3, rats were anesthetized with isoflurane and injected with 1.5 μg of recombinant rat IL-23 (R&D Systems) in 20 μL PBS, intradermally, in the right ear; controls received an equivalent volume of PBS. Body weight was recorded daily. Thickness of the right (IL-23 injected) ear was measured to the nearest 0.05 mm using calipers (Kroeplin GmbH; Schlüchtern, Germany). Animals were euthanized by CO2 asphyxiation on Day 4. Blood was collected via cardiac puncture, deposited into K2EDTA tubes, and centrifuged at 2000 × g for 20 min. Plasma was collected into 5% volume protease inhibitor and stored at − 80 °C until bioanalysis by LC–MS. For gene expression analyses (IL-22, IL-17A, and IL-17F), the right ear was excised, flash frozen, homogenized, and reverse transcription polymerase chain reaction (RT-PCR) was performed using a TaqMan gene expression array (ThermoFisher Scientific).

healthy participants = assay: First-in-human study, safety and tolerability; type: in vivo
Text: The purpose of the first-in-human, single-center, randomized, double-blind, placebo-controlled study was to determine the safety, tolerability, pharmacokinetics, and pharmacodynamics of JNJ-77242113 in healthy participants. […] AEs were coded using the Medical Dictionary for Regulatory Activities (Version 23.1).

CC(=O)NCCCC[C@@H]1NC(=O)[C@H](Cc2c[nH]c3c(C)cccc23)NC(=O)[C@H]([C@@H](C)O)NC(=O)[C@H](CC(N)=O)NC(=O)[C@@H](NC(C)=O)C(C)(C)SSC(C)(C)[C@@H](C(=O)N[C@@H](Cc2ccc(OCCN)cc2)C(=O)N[C@@H](Cc2ccc3ccccc3c2)C(=O)NC2(C(=O)N[C@@H](CCC(=O)O)C(=O)N[C@@H](CC(N)=O)C(=O)N[C@@H](Cc3cccnc3)C(=O)N(C)CC(N)=O)CCOCC2)NC1=O [JNJ-77242113, S^3,1,S^3,6-cyclo[N-acetyl-3-sulfanyl-L-valyl-L-asparaginyl-L-threonyl-7-methyl-L-tryptophyl-N^6-acetyl-L-lysyl-3-sulfanyl-L-valyl-O-(2-aminoethyl)-L-tyrosyl-3-(naphthalen-2-yl)-L-alanyl-4-aminooxan-4-carbonyl-L-α-glutamyl-L-asparaginyl-3-(pyridin-3-yl)-L-alanyl-N^2-methylglycinamide]]
inhibition at 10 µM ([1]; 1st run, read-out: Percent inhibition of control ligand binding, α1A, 1st run): -4.6% | inhibition at 10 µM ([1]; 2nd run, read-out: Percent inhibition of control ligand binding, α1A, 2nd run): 5.5% | inhibition at 10 µM ([1]; mean of 2 runs, read-out: Percent inhibition of control ligand binding, α1A, Mean): 0.5% | inhibition at 10 µM ([2]; 1st run, read-out: Percent inhibition of control ligand binding, β1, 1st run): -5.1% | inhibition at 10 µM ([2]; 2nd run, read-out: Percent inhibition of control ligand binding, β1, 2nd run): 7.7% | inhibition at 10 µM ([2]; mean of 2 runs, read-out: Percent inhibition of control ligand binding, β1, Mean): 1.3% | inhibition at 10 µM ([3]; 1st run, read-out: Percent inhibition of control ligand binding, μ (MOP), 1st run): 5.1% | inhibition at 10 µM ([3]; 2nd run, read-out: Percent inhibition of control ligand binding, μ (MOP), 2nd run): -4.8% | inhibition at 10 µM ([3]; mean of 2 runs, read-out: Percent inhibition of control ligand binding, μ (MOP), Mean): 0.1% | inhibition at 10 µM ([4]; 1st run, read-out: Percent inhibition of control ligand binding, V1a, 1st run): 4.8% | inhibition at 10 µM ([4]; 2nd run, read-out: Percent inhibition of control ligand binding, V1a, 2nd run): 6.4% | inhibition at 10 µM ([4]; mean of 2 runs, read-out: Percent inhibition of control ligand binding, V1a, Mean): 5.6% | inhibition at 10 µM (Dopamine transporter; 1st run, read-out: Percent inhibition of control ligand binding, Dopamine transporter, 1st run): -3.6% | inhibition at 10 µM (Dopamine transporter; 2nd run, read-out: Percent inhibition of control ligand binding, Dopamine transporter, 2nd run): -4.4% | inhibition at 10 µM (Dopamine transporter; mean of 2 runs, read-out: Percent inhibition of control ligand binding, Dopamine transporter, Mean): -4% | inhibition at 10 µM (5-HT transporter; 1st run, read-out: Percent inhibition of control ligand binding, 5-HT transporter, 1st run): -19.9% | inhibition at 10 µM (5-HT transporter; 2nd run, read-out: Percent inhibition of control ligand binding, 5-HT transporter, 2nd run): 1.4% | inhibition at 10 µM (5-HT transporter; mean of 2 runs, read-out: Percent inhibition of control ligand binding, 5-HT transporter, Mean): -9.2% | Colon tissue concentration ([5]; 0.03 mg/kg/day oral, Study 2): BQL | level at time molar ([5]; 0.1 mg/kg/day oral, Study 1, read-out: Colon content concentration): 410 nM | level at time molar ([5]; 0.1 mg/kg/day oral, Study 1, read-out: Colon tissue concentration): 12.8 nM | level at time molar ([5]; 0.1 mg/kg/day oral, Study 2, read-out: Colon content concentration): 310 nM | level at time molar ([5]; 0.1 mg/kg/day oral, Study 2, read-out: Colon tissue concentration): 16.8 nM | Colon tissue concentration ([5]; 0.1 mg/kg/day oral, Study 3): BQL | level at time molar ([5]; 0.1 mg/kg/day oral, Study 3, read-out: Colon content concentration): 299 nM | level at time molar ([5]; 0.3 mg/kg/day oral, Study 1, read-out: Colon tissue concentration): 25.4 nM | level at time molar ([5]; 1 mg/kg/day oral, Study 1, read-out: Colon content concentration): 3340 nM | level at time molar ([5]; 1 mg/kg/day oral, Study 2, read-out: Colon content concentration): 3920 nM | level at time molar ([5]; 1 mg/kg/day oral, Study 3, read-out: Colon content concentration): 3190 nM | level at time molar ([5]; 3 mg/kg/day oral, Study 1, read-out: Colon content concentration): 9210 nM | level at time molar ([5]; 3 mg/kg/day oral, Study 1, read-out: Colon tissue concentration): 333 nM | level at time molar ([5]; 3 mg/kg/day oral, Study 2, read-out: Colon content concentration): 11700 nM | level at time molar ([5]; 3 mg/kg/day oral, Study 2, read-out: Colon tissue concentration): 468 nM | level at time molar ([5]; 3 mg/kg/day oral, Study 3, read-out: Colon content concentration): 11000 nM | level at time molar ([5]; 3 mg/kg/day oral, Study 3, read-out: Colon tissue concentration): 268 nM | level at time molar ([5]; male, Sprague-Dawley, rat, colon content, po, 0.03 mg/kg/day, 0.03 mg/kg/day oral, Study 2, read-out: Colon content concentration): 90.1 nM | level at time molar ([5]; male, Sprague-Dawley, rat, colon content, po, 0.3 mg/kg/day, 0.3 mg/kg/day oral, Study 1, read-out: Colon content concentration): 973 nM | level at time molar ([5]; male, Sprague-Dawley, rat, colon content, po, 0.3 mg/kg/day, 0.3 mg/kg/day oral, Study 2, read-out: Colon content concentration): 1050 nM | level at time molar ([5]; male, Sprague-Dawley, rat, colon content, po, 0.3 mg/kg/day, 0.3 mg/kg/day oral, Study 3, read-out: Colon content concentration): 1680 nM | level at time molar ([5]; male, Sprague-Dawley, rat, colon content, po, 10 mg/kg/day, 10 mg/kg/day oral, Study 2, read-out: Colon content concentration): 38700 nM | level at time molar ([5]; male, Sprague-Dawley, rat, colon tissue, po, 0.3 mg/kg/day, 0.3 mg/kg/day oral, Study 2, read-out: Colon tissue concentration): 47.5 nM | level at time molar ([5]; male, Sprague-Dawley, rat, colon tissue, po, 0.3 mg/kg/day, 0.3 mg/kg/day oral, Study 3, read-out: Colon tissue concentration): 23.4 nM | level at time molar ([5]; male, Sprague-Dawley, rat, colon tissue, po, 1 mg/kg/day, 1 mg/kg/day oral, Study 1, read-out: Colon tissue concentration): 84.3 nM | level at time molar ([5]; male, Sprague-Dawley, rat, colon tissue, po, 1 mg/kg/day, 1 mg/kg/day oral, Study 2, read-out: Colon tissue concentration): 168 nM | level at time molar ([5]; male, Sprague-Dawley, rat, colon tissue, po, 1 mg/kg/day, 1 mg/kg/day oral, Study 3, read-out: Colon tissue concentration): 83.2 nM | level at time molar ([5]; male, Sprague-Dawley, rat, colon tissue, po, 10 mg/kg/day, 10 mg/kg/day oral, Study 2, read-out: Colon tissue concentration): 1410 nM | Plasma levels 16 h after the final dose [6]: below the limit of quantification | Serious AEs or deaths related to JNJ-77242113 (healthy participants; all cohorts): No serious AEs or deaths | Severity of adverse events (healthy participants; all cohorts): mild or moderate | Headache, participants, Part 2 (healthy participants; healthy participants, multiple ascending dose): 13.6% | Frequency of treatment-related AEs, Part 2 (healthy participants; healthy participants, multiple ascending dose, JNJ-77242113 groups): 46% | Headache, participants, Part 1 (healthy participants; healthy participants, single ascending dose): 10.3% | Frequency of treatment-related AEs, Part 1 (healthy participants; healthy participants, single ascending dose, JNJ-77242113 groups): 31%
